{"source": "paper PMC6675714", "about": "(Cancer Medicine, 2019)", "origin": "cited, not measured here", "key": {"Caki‐1 tumor": {"test_system": "Caki‐1 tumor", "settings": "cited from earlier work; for T/C (tumor growth): same xenograft mice model (Caki‐1, NMRI:nu/nu)"}, "advanced stages of CCRCC": {"test_system": "advanced stages of CCRCC", "settings": "chemo‐monotherapies; cited from earlier work"}, "H‐Ras/Raf‐1 interaction": {"test_system": "H‐Ras/Raf‐1 interaction", "parameters": "method as in PMID 28959398", "settings": "cited from earlier work"}, "A431 tumor": {"test_system": "A431 tumor", "parameters": "method as in PMID 28959398", "settings": "A431 tumor‐bearing female BALB/cA.Cg‐Foxn1^nu/CrINarI; cited from earlier work"}, "[1]": {"settings": "Caki‐1 tumor‐bearing female NMRI:nu/nu mice"}}, "note": "Like-named read-outs stand apart in the source and are kept apart here.", "data": [{"molecule": "[Cl][Au-][c]1n(Cc2ccccc2)c(-c2ccccc2)c(-c2ccccc2)[n+]1Cc1ccccc1", "note": "[NHC‐Au‐Cl]", "values": [{"measurement": "T/C (tumor growth)", "setting": "Caki‐1 tumor", "result": 47, "unit": "%"}, {"measurement": "Side effects", "setting": "Caki‐1 tumor; same xenograft mice model", "result": "no severe side effects"}, {"measurement": "ki‐67 or CD31 markers", "setting": "Caki‐1 tumor; same xenograft mice model", "result": "no decrease"}]}, {"molecule": "CCCCCOC(=O)Nc1nc(=O)n([C@@H]2O[C@H](C)[C@@H](O)[C@H]2O)cc1F", "note": "[capecitabine]", "values": [{"measurement": "Response rate", "setting": "advanced stages of CCRCC", "result": "~20", "unit": "%"}, {"measurement": "Survival", "setting": "advanced stages of CCRCC", "result": 15, "unit": "months"}]}, {"molecule": "CCN(CC)c1ccc(C[c-]2cccc2)cc1.CCN(CC)c1ccc(C[c-]2cccc2)cc1.[Cl][Ti+2][Cl]", "note": "[Titanocene Y*]", "values": [{"measurement": "Side effects", "setting": "Caki‐1 tumor; [1]", "result": "no severe side effects"}, {"measurement": "Reduction of proliferation marker ki‐67", "setting": "Caki‐1 tumor; Caki‐1 xenograft", "result": 21, "unit": "%"}, {"measurement": "Vascularization", "setting": "Caki‐1 tumor; Caki‐1 xenograft", "result": "decreased vascularization"}, {"measurement": "Weight loss", "setting": "Caki‐1 tumor; Caki‐1 xenograft", "result": "dose‐dependent weight loss"}]}, {"molecule": "CC(=O)OCC1OC([S][Au-][c]2n(Cc3ccccc3)c(-c3ccccc3)c(-c3ccccc3)[n+]2Cc2ccccc2)C(OC(C)=O)C(OC(C)=O)C1OC(C)=O", "note": "(centres unmarked) [NHC‐AuSR]", "values": [{"measurement": "T/C (tumor growth)", "setting": "Caki‐1 tumor", "result": 47, "unit": "%"}, {"measurement": "Side effects", "setting": "Caki‐1 tumor; same xenograft mice model", "result": "no severe side effects"}, {"measurement": "ki‐67 or CD31 markers", "setting": "Caki‐1 tumor; same xenograft mice model", "result": "no decrease"}]}, {"molecule": "O=c1[nH]cc(F)c(=O)[nH]1", "note": "[5‐FU]", "values": [{"measurement": "Response rate", "setting": "advanced stages of CCRCC", "result": "~20", "unit": "%"}, {"measurement": "Survival", "setting": "advanced stages of CCRCC", "result": 15, "unit": "months"}]}, {"molecule": "COc1ccc(C[c-]2cccc2)cc1.COc1ccc(C[c-]2cccc2)cc1.[Cl][V+2][Cl]", "note": "[Vanadocene Y]", "values": [{"measurement": "Side effects", "setting": "Caki‐1 tumor; [1]", "result": "no severe side effects"}]}, {"molecule": "[Ir(tpy)(dnbpy)]", "values": [{"measurement": "H‐Ras/Raf‐1 interaction", "setting": "H‐Ras/Raf‐1 interaction", "result": "inhibiting"}, {"measurement": "Tumor growth", "setting": "A431 tumor", "result": "tumor growth inhibition"}]}]}
